By IC50 is commonly meant the point on the concentration scale where inhibition reaches its midpoint. High values mean lower potency, low ones higher potency.

The results in this text go back to BindingDB's records for patent US11279687 (Valo Health, 2022).

This assay deals with Nicotinamide phosphoribosyltransferase (Homo sapiens, UniProt P43490). In words: Biochemical Inhibition Assay.
Nicotinamide phosphoribosyltransferase, sequence (P43490 whole entry): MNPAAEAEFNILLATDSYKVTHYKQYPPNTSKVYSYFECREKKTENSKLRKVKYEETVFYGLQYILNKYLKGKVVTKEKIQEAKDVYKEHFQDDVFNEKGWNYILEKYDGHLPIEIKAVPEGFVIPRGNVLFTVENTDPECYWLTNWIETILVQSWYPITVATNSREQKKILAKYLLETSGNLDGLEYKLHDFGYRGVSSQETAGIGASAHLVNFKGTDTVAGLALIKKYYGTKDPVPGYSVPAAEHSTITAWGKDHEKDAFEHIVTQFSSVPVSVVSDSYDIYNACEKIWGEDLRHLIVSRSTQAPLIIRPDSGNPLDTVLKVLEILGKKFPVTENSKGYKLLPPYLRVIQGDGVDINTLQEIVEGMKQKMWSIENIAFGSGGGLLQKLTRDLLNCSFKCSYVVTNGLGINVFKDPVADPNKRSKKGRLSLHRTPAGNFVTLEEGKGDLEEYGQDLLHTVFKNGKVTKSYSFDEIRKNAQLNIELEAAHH

`C[C@H]1C2C[C@H](C[C@@H]1NS(=O)(=O)c1ccc(NC(=O)NCc3cccnc3)cc1)C2(C)C` [US11279687, Compound 86] came in with an IC50 of 12 nM.
